Reference: article PMC3637938 (Chemical research in toxicology, 2013)

Legend:
FLAG-Trx2 = biological target: T1, FLAG-Trx2 (Saccharomyces cerevisiae, UniProt P22803); test: cross-linking in yeast cells, anti-FLAG immunoblot; type: cell-based; conditions: covalent; 1 h
T1 sequence (P22803 2-104): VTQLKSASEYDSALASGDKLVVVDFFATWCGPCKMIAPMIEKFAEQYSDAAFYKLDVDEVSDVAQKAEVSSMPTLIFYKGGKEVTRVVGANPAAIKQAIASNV

FLAG-Tsa1 = biological target: T2, FLAG-Tsa1 (Saccharomyces cerevisiae, UniProt P34760); test: cross-linking in yeast cells, anti-FLAG immunoblot; type: cell-based; conditions: covalent; 1 h
T2 sequence (P34760 2-196): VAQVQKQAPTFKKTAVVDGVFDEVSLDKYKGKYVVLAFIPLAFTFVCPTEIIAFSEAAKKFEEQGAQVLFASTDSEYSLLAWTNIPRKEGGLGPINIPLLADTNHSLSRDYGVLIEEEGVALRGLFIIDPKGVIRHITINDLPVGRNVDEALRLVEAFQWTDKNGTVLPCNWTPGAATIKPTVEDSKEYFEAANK

SMILES	cross-linking in yeast cells, anti-FLAG immunoblot (FLAG-Trx2)	cross-linking in yeast cells, anti-FLAG immunoblot (FLAG-Tsa1)
C1OC1C1CO1 (stereo not shown) [1,2,3,4-diepoxybutane]	each of these bifunctional electrophiles promotes cross-linking of Trx2 and Tsa1 in yeast	each of these bifunctional electrophiles promotes cross-linking of Trx2 and Tsa1 in yeast
CCOC(=O)C#CC(=O)OCC [diethyl acetylenedicarboxylate]	each of these bifunctional electrophiles promotes cross-linking of Trx2 and Tsa1 in yeast	each of these bifunctional electrophiles promotes cross-linking of Trx2 and Tsa1 in yeast
